Laboratory results reported in PubChem BioAssay AID330 (DTP/NCI, 2004).
Several values for one entry are separate records, joined by “and”; a condition that tells them apart may be missing. Equal values may be shown once. Inconclusive results and toxic doses are left out. Rule for the calls: active = survival T/C of 150% or more; inactive = T/C below 125% in these data.

Test system: P388 leukemia ip, CD2F1 mice, survival T/C
Experiment: NCI In Vivo Anticancer Drug Screen. Data for tumor model P388 Leukemia (intraperitoneal) in CD2F1 (CDF1) mice
Conditions: endpoint: median survival time, higher = longer survival
How it was run: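 Mice carrying the transplanted tumor received test compound or vehicle. Survival was recorded in each group, and the value is the treated-group measurement divided by that of the vehicle-treated control group.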

[1] = dose: 100.0 mg/kg/injection, schedule: Q04DX002 (ip), vehicle: saline
[2] = dose: 200.0 mg/kg/injection, schedule: Q04DX002 (ip), vehicle: saline
[3] = dose: 400.0 mg/kg/injection, schedule: Q04DX002 (ip), vehicle: saline
[4] = dose: 50.0 mg/kg/injection, schedule: Q01DX005 (ip), vehicle: Klucel (hydroxypropylcellulose) (HPC)
[5] = dose: 100.0 mg/kg/injection, schedule: Q01DX005 (ip), vehicle: Klucel (hydroxypropylcellulose) (HPC)
[6] = dose: 200.0 mg/kg/injection, schedule: Q01DX005 (ip), vehicle: Klucel (hydroxypropylcellulose) (HPC)
[7] = dose: 60.0 mg/kg/injection, schedule: Q01DX005 (ip), vehicle: saline with Tween-80
[8] = dose: 120.0 mg/kg/injection, schedule: Q01DX005 (ip), vehicle: saline with Tween-80
[9] = dose: 240.0 mg/kg/injection, schedule: Q01DX005 (ip), vehicle: saline with Tween-80
[10] = dose: 50.0 mg/kg/injection, schedule: Q01DX009 (ip), vehicle: saline
[11] = dose: 100.0 mg/kg/injection, schedule: Q01DX009 (ip), vehicle: saline
[12] = dose: 60.0 mg/kg/injection, schedule: Q01DX005 (ip), vehicle: saline
[13] = dose: 120.0 mg/kg/injection, schedule: Q01DX005 (ip), vehicle: saline
[14] = dose: 240.0 mg/kg/injection, schedule: Q01DX005 (ip), vehicle: saline
[15] = dose: 50.0 mg/kg/injection, schedule: Q01DX005 (ip), vehicle: saline with Tween-80
[16] = dose: 100.0 mg/kg/injection, schedule: Q01DX005 (ip), vehicle: saline with Tween-80
[17] = dose: 200.0 mg/kg/injection, schedule: Q01DX005 (ip), vehicle: saline with Tween-80

Measured: T/C

Clc1nc(-c2ccccc2)nc(-c2ccccc2)n1
inactive: [1] 104 % of control | [2] 100 % of control | [3] 109 % of control

Cc1cc2nc3c(C(O)C(O)C(O)CO)nn(-c4ccc(F)cc4)c3nc2cc1C (stereo unspecified)
inactive: [4] 88 % of control | [5] 86 % of control | [6] 93 % of control

C[N+]1(C)Cc2ccccc2C1
inactive: dose: 12.5 mg/kg/injection, schedule: Q01DX009 (ip), vehicle: saline 105 % of control | dose: 25.0 mg/kg/injection, schedule: Q01DX009 (ip), vehicle: saline 108 % of control

CN(C)c1ccc(N=Nc2ccc3cc4ccccc4cc3c2)cc1
inactive: dose: 25.0 mg/kg/injection, schedule: Q04DX003 (ip), vehicle: saline with Tween-80 101 % of control | dose: 50.0 mg/kg/injection, schedule: Q04DX003 (ip), vehicle: saline with Tween-80 105 % of control

CCOC(=O)C(=O)Nc1sc(C)c(C)c1C#N
inactive: dose: 50.0 mg/kg/injection, schedule: Q01DX009 (ip), vehicle: saline + alcohol 90 % of control | dose: 100.0 mg/kg/injection, schedule: Q01DX009 (ip), vehicle: saline + alcohol 98 % of control | dose: 200.0 mg/kg/injection, schedule: Q01DX009 (ip), vehicle: saline + alcohol 105 % of control

O=C(Cc1ccncc1)c1cccnc1
inactive: dose: 12.5 mg/kg/injection, schedule: Q01DX001 (ip), vehicle: saline 101 % of control | dose: 25.0 mg/kg/injection, schedule: Q01DX001 (ip), vehicle: saline 102 % of control | dose: 50.0 mg/kg/injection, schedule: Q01DX001 (ip), vehicle: saline 107 % of control | [1] 98 % of control | [2] 99 % of control | [3] 105 % of control

CC1=CC(=O)CCC12CCOC2=O (stereo unspecified)
inactive: [7] 104 % of control | [8] 101 % of control | [9] 101 % of control

O=C(O)c1ccc2c(=O)c(C(=O)O)c[nH]c2c1
inactive: [10] 100 % of control | [11] 96 % of control | dose: 200.0 mg/kg/injection, schedule: Q01DX009 (ip), vehicle: saline 103 % of control

Cc1cc(C(=O)NN)no1
inactive: [10] 99 % of control | [11] 100 % of control

CCOC(=O)c1cnc(SC)n(-c2ccc(OC)cc2)c1=O
inactive: [4] 107 % of control | [5] 92 % of control | [6] 101 % of control

C=C(/C=C/CCCC)NC(=O)OCc1ccccc1
inactive: [7] 97 % of control | [8] 96 % of control | [9] 104 % of control

O=C(O)/C=C\S(=O)(=O)O
inactive: dose: 25.0 mg/kg/injection, schedule: Q04DX002 (ip), vehicle: saline 116 % of control | dose: 50.0 mg/kg/injection, schedule: Q04DX002 (ip), vehicle: saline 106 % of control | [1] 93 % of control

COc1cc2c(cc1OC)C13CCN4C(=O)C(=O)C(CC41)C1C(OCC(=O)O)CC(=O)N2C13 (stereo unspecified)
inactive: [12] 101 % of control | [13] 101 % of control | [14] 100 % of control

O=[N+]([O-])c1cccc2c1CCCC2
inactive: dose: 12.5 mg/kg/injection, schedule: Q01DX009 (ip), vehicle: saline with Tween-80 100 % of control | dose: 25.0 mg/kg/injection, schedule: Q01DX009 (ip), vehicle: saline with Tween-80 109 % of control | dose: 50.0 mg/kg/injection, schedule: Q01DX009 (ip), vehicle: saline with Tween-80 90 % of control

COc1cc2c(cc1OC)[C@H]1[C@H](CO)c3ccc4c(c3CN1CC2)OCO4
inactive: dose: 12.5 mg/kg/injection, schedule: Q01DX005 (ip), vehicle: Klucel (hydroxypropylcellulose) (HPC) 100 % of control | dose: 25.0 mg/kg/injection, schedule: Q01DX005 (ip), vehicle: Klucel (hydroxypropylcellulose) (HPC) 96 % of control | [4] 94 % of control and 96 % of control

Cc1cc(N2CCCCC2)cc(=O)o1
inactive: dose: 50.0 mg/kg/injection, schedule: Q01DX009 (ip), vehicle: Klucel (hydroxypropylcellulose) (HPC) 104 % of control | dose: 100.0 mg/kg/injection, schedule: Q01DX009 (ip), vehicle: Klucel (hydroxypropylcellulose) (HPC) 102 % of control

O=C([O-])C(=O)[O-].[Co+3].[NH2-].[NH2-].[NH2-].[NH2-].[O-][Cl+3]([O-])([O-])O
inactive: dose: 12.5 mg/kg/injection, schedule: Q04DX003 (ip), vehicle: water 89 % of control | dose: 25.0 mg/kg/injection, schedule: Q04DX003 (ip), vehicle: water 95 % of control | dose: 50.0 mg/kg/injection, schedule: Q04DX003 (ip), vehicle: water 98 % of control | dose: 100.0 mg/kg/injection, schedule: Q04DX003 (ip), vehicle: water 94 % of control

O=[N+]([O-])c1ccc(Oc2ccccc2[N+](=O)[O-])nc1
inactive: dose: 6.25 mg/kg/injection, schedule: Q01DX009 (ip), vehicle: Klucel (hydroxypropylcellulose) (HPC) 106 % of control | dose: 12.5 mg/kg/injection, schedule: Q01DX009 (ip), vehicle: Klucel (hydroxypropylcellulose) (HPC) 105 % of control | dose: 25.0 mg/kg/injection, schedule: Q01DX009 (ip), vehicle: Klucel (hydroxypropylcellulose) (HPC) 103 % of control

CS(C)=O.CS(C)=O.[Cl][Rh]([Cl])([Cl])[Cl]
inactive: dose: 12.5 mg/kg/injection, schedule: Q04DX003 (ip), vehicle: saline 100 % of control | dose: 25.0 mg/kg/injection, schedule: Q04DX003 (ip), vehicle: saline 109 % of control | dose: 50.0 mg/kg/injection, schedule: Q04DX003 (ip), vehicle: saline 118 % of control

O=c1cc2c(n[nH]1)-c1ccccc1C2
inactive: [15] 100 % of control | [16] 109 % of control | [17] 96 % of control

CCOC(=O)C(CC/C=C(\C)CC/C=C/COC(=O)N(C(C)C)C(C)C)P(=O)(OCC)OCC (stereo unspecified)
inactive: [15] 109 % of control | [16] 106 % of control | [17] 109 % of control

C/C(=N\OCC(O)CNCCSCc1ccccc1)c1ccccc1Cl (stereo unspecified)
inactive: dose: 30.0 mg/kg/injection, schedule: Q01DX005 (ip), vehicle: Klucel (hydroxypropylcellulose) (HPC) 97 % of control | dose: 60.0 mg/kg/injection, schedule: Q01DX005 (ip), vehicle: Klucel (hydroxypropylcellulose) (HPC) 91 % of control | dose: 120.0 mg/kg/injection, schedule: Q01DX005 (ip), vehicle: Klucel (hydroxypropylcellulose) (HPC) 100 % of control and 91 % of control

O=S(=O)(O)C1=CC(=N\Cl)/C=CC/1=N/Cl
inactive: dose: 25.0 mg/kg/injection, schedule: Q01DX005 (ip), vehicle: saline + Tween-80 + alcohol 100 % of control and 113 % of control | dose: 50.0 mg/kg/injection, schedule: Q01DX005 (ip), vehicle: saline + Tween-80 + alcohol 107 % of control and 113 % of control and 119 % of control | dose: 100.0 mg/kg/injection, schedule: Q01DX005 (ip), vehicle: saline + Tween-80 + alcohol 111 % of control and 117 % of control | dose: 200.0 mg/kg/injection, schedule: Q01DX005 (ip), vehicle: saline + Tween-80 + alcohol 116 % of control and 120 % of control

CCN1C(=O)C2C3C=CC(C2C1=O)C1C2C(=O)N(CC)C(=O)C2C31 (stereo unspecified)
inactive: dose: 100.0 mg/kg/injection, schedule: Q01DX001 (ip), vehicle: suspension in saline 99 % of control | dose: 200.0 mg/kg/injection, schedule: Q01DX001 (ip), vehicle: suspension in saline 96 % of control | dose: 400.0 mg/kg/injection, schedule: Q01DX001 (ip), vehicle: suspension in saline 100 % of control

COC(=O)[C@@H]1N2C(=O)C=NO[C@H]2SC1(C)C
inactive: [12] 95 % of control | [13] 98 % of control | [14] 104 % of control

NS(=O)(=O)c1ccc(N=NC2C(=O)N(C(=O)CC(=O)Nc3ccc(C(=O)O)cc3)N=C2c2ccccc2)cc1 (stereo unspecified)
inactive: [15] 97 % of control | [16] 92 % of control | [17] 90 % of control

CC(C)C1C(=O)N(c2ccccc2)N(C)C1C (stereo unspecified)
inactive: dose: 100.0 mg/kg/injection, schedule: Q04DX003 (ip), vehicle: Klucel (hydroxypropylcellulose) (HPC) 100 % of control | dose: 200.0 mg/kg/injection, schedule: Q04DX003 (ip), vehicle: Klucel (hydroxypropylcellulose) (HPC) 104 % of control
